Patent publication US20240366540A1, “MITOFUSIN INHIBITORS AND USES THEREOF” (Albert Einstein College of Medicine, priority 2021, published 2024)
Values belong to the molecule of their own block, whether it stands above or below them. Starred links: 1 amine or outer side, 2 acyl side, 3 side chain; linkers in the order of their positions; H or OH if unused. Positions of bridges follow the written chain, without caps; N, C: chain ends. Non-standard residues stand in square brackets, D forms with d. Residues, ends and D or L forms follow the SMILES beside them. Chains are numbered I, II in the order given. Hexamethylenediamine = C(CCCN[*:2])CCN[*:1]; Dip = N[C@H](C(=O)O)C(c1ccccc1)c1ccccc1; Chg = N[C@H](C(=O)O)C1CCCCC1; NMeA = CN[C@@H](C)C(=O)O

Key:
[1] = target: T1, HR2 domain of MFN2 (residues 678-757) (Homo sapiens, UniProt O95140); test: Microscale thermophoresis (MST) binding; conditions: His-tagged MFN2-HR2, 30° C.
T1 sequence (O95140 678-757): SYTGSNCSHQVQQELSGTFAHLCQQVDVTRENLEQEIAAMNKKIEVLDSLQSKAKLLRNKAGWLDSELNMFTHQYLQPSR
Protocol: Microscale Thermopheresis. Freshly purified His-tagged MFN2-HR2 domain was used for Microscale Thermophoresis (MST) binding studies. For protein labelling, a fresh stock of 5 μM His-tag-RED-tris-NTA 2nd generation dye (Nanotemper) in 25 mM Hepes pH 7.5, 100 mM NaCl, 0.005% Tween-20 (assay buffer) was used to label 500 nM of MFN2-HR2 in the same buffer. The labeling reaction was incubated for 30 min at RT and centrifuged at 15.000×g at 4° C. for 10 min. Labelled protein from the supernatant was kept on ice and used immediately. Compounds were serially diluted in 100% DMSO. Immediately before mixing with labeled protein, the dilution series was transferred in assay buffer to reach 2% DMSO. 10 μl of each compound in the final series was mixed with 10 μl of labeled protein and samples were incubated for 5 min at 30° C. before MST measurement using a MonolithNT.115 instrument (Nanotemper). Peptides were diluted in assay buffer plus 2% DMSO and treated as above. […] Kd values were obtained from non-linear regression fits of normalized data to a three or four parameter logistic curve, using GraphPad Prism 9.

MEFs [2] = test: Mitochondrial aspect ratio (Mito AR), live cell imaging; conditions: for mitochondrial aspect ratio: MEFs, MitoTracker Green; for capacity to promote mitochondrial fragmentation in cells (activity of MFI8 analogue): compared with MFI8; for activity to promote mitochondrial fusion or fision: MASMs: fusion, MFIs: fission
Protocol: Live cell imaging. MEFs were seeded on chamber slides (MatTek Corporation: 35 mm dishes, No. 1.5, 14 mm glass diameter) at ˜70% confluence. […] Images were taken with Leica SP5 inverted confocal microscope. Data were analyzed with Image J software. >200 mitochondria were measured per condition in mitochondrial aspect ratio.
Measurement of mitochondrial aspect ratio (Mito AR). Images that depict stained mitochondria with mitotracker green were analyzed using FIJI We measured for each mitochondrion its length and width. Then, we divided the length by the width for each mitochondrion to get its mitochondrial aspect ratio. >200 mitochondria were measured per treatment.

cells = test: Cell death assay (Annexin V / propidium iodide); format: cell-based
Protocol: Cell death assay. Cells (2×10^5 cells/well) were seeded in a 6-well plate and treated with the indicated drugs for 6 hours. Cells were dissociated using Accutase (Thermo Fisher; Cat. #00-4555-56) in order to avoid accidental exposure of phosphatidylserine on the outer plasma membrane. Cell death was evaluated with Dead Cell Apoptosis Kit with Annexin V Alexa Fluor™ 488 & Propidium Iodide (Thermo Fisher; Cat. #V13241) according to manufacturer's protocol. Data was acquired by BD LSRII flow cytometer system using BD FACSDiva software. Data was analyzed by FlowJo (BD).

MEFs [3] = test: Caspase-3/7 activation assay; format: cell-based, mouse; conditions: 6 hr, Caspase-Glo 3/7
Protocol: Caspase-3/7 activation assay. Cells (5×10^3 cells/well) were seeded in a 96-well white plate and treated with MASM7, MFI8. Caspase 3/7 activation was measured after 6 hr by addition of the Caspase-Glo 3/7 reagent according to the manufacturer's protocol (Promega). Luminescence was detected by a F200 PRO microplate reader (TECAN). Caspase assays were performed in at least triplicate and the data normalized to vehicle-treated control wells. Dilutions of MASM7 or MFI8 were performed using a TECAN D300e Digital Dispenser from 10 mM stocks.

[4] = target: the molecule itself; test: blue native PAGE of digitonin lysates of isolated MEF mitochondria, anti-MFN2 blot

Molecule: CN[C@@H](C)C(=O)N[C@H](C(=O)N1CCC[C@H]1C(=O)N[C@H](C(=O)NCCCCCCNC(=O)[C@@H](NC(=O)[C@@H]1CCCN1C(=O)[C@@H](NC(=O)[C@H](C)NC)C1CCCCC1)C(c1ccccc1)c1ccccc1)C(c1ccccc1)c1ccccc1)C1CCCCC1 [BV6, reference compound] (I: H-[NMeA][Chg]P[Dip] / II: H-[NMeA][Chg]P[Dip]; linker I:C-II:C via Hexamethylenediamine)
cell death upon BV6 treatment (cells; deletion of MFNs): sensitized cells to BV6 treatment

Molecule: Cc1cccc(NCc2cc(Cl)ccc2O)c1 [MFI24, 4-Chloro-2-((m-tolylamino)methyl)phenol]
mitochondrial aspect ratio (MEFs [2]): did not reduce mitochondrial aspect ratio

B1: MFN2 (endogenous, in mitochondria isolated from MEFs) (other, mouse (MEFs), UniProt Q80U63 1-757, looked up)
chain: MSLLFSRCNSIVTVKKDKRHMAEVNASPLKHFVTAKKKINGIFEQLGAYIQESASFLEDTHRNTELDPVTTEEQVLDVKGYLSKVRGISEVLARRHMKVAFFGRTSNGKSTVINAMLWDKVLPSGIGHTTNCFLRVGGTDGHEAFLLTEGSEEKKSVKTVNQLAHALHQDEQLHAGSMVSVMWPNSKCPLLKDDLVLMDSPGIDVTTELDSWIDKFCLDADVFVLVANSESTLMQTEKQFFHKVSERLSRPNIFILNNRWDASASEPEYMEEVRRQHMERCTSFLVDELGVVDRAQAGDRIFFVSAKEVLSARVQKAQGMPEGGGALAEGFQVRMFEFQNFERQFEECISQSAVKTKFEQHTVRAKQIAEAVRLIMDSLHIAAQEQRVYCLEMREERQDRLRFIDKQLELLAQDYKLRIKQITEEVERQVSTAMAEEIRRLSVLVDEYQMDFHPSPVVLKVYKNELHRHIEEGLGRNLSDRCSTAIASSLQTMQQDMIDGLKPLLPVSMRNQIDMLVPRQCFSLSYDLNCDKLCADFQEDIEFHFSLGWTMLVNRFLGPKNSRRALLGYSDQVQRPLPLTPANPSMPPLPQSSLTQEELMVSMVTGLASLTSRTSMGILVVGGVVWKAVGWRLIALSFGLYGLLYVYERLTWTTKAKERAFKRQFVEYASEKLQLIISYTGSNCSHQVQQELSGTFAHLCQQVDITRDNLEQEIAAMNKKVEALDSLQSRAKLLRNKAGWLDSELNMFTHQYLQPSR
notes: whole, on cells; The protein stood in isolated mitochondria, not on whole cells; It was solubilised with digitonin and resolved by blue native PAGE; also called mitofusin-2
binding result [4]: binds

More lines, main results first:

direct binding to the HR2 domain of MFN2 (MST) [1]: demonstrated direct binding
Molecule: Cc1cccc(NCc2cc(Cl)ccc2O)c1C [MFI23, 4-Chloro-2-(((2,3-dimethylphenyl)amino)methyl)phenol]
mitochondrial aspect ratio (MEFs [2]): decreasing | capacity to promote mitochondrial fragmentation in cells (activity of MFI8 analogue) (MEFs [2]): minimal effect on the activity

direct binding to the HR2 domain of MFN2 (MST) [1]: did not demonstrate measurable binding | caspase-3/7 activity (MEFs [3]): did not increase caspase-3/7 activity
Molecule: Cc1cccc(NC(C)c2ccccc2O)c1C (centres unmarked) [MFI22, 2-(1-((2,3-Dimethylphenyl)amino)ethyl)phenol]
sensitization to BV6-induced cell death (cells; in combination with BV6): did not sensitize cells to BV6 treatment | activity to promote mitochondrial fusion or fision (MEFs [2]): inability or weak activity | capacity to promote mitochondrial fragmentation in cells (activity of MFI8 analogue) (MEFs [2]): significantly reduced the capacity of the compound to promote mitochondrial fragmentation

direct binding to the HR2 domain of MFN2 (MST) [1]: did not demonstrate measurable binding
Molecule: Cc1cccc(NC(C)c2cccc(Cl)c2)c1C (centres unmarked) [MFI26, N-(1-(3-chlorophenyl)ethyl)-2,3-dimethylaniline]
activity to promote mitochondrial fusion or fision (MEFs [2]): inability or weak activity | capacity to promote mitochondrial fragmentation in cells (activity of MFI8 analogue) (MEFs [2]): detrimental for the activity
